Assay results as given in patent US7795208B2, “Methods of using deacetylase inhibitors to promote cell differentiation and regeneration” (The Salk Institute for Biological Study, priority 2001, dated 2010).
Where “and” joins values, the source holds several entries; their conditions need not be identical. Identical values can stand only once.

Key:
C2C12 cells = assay: Differentiation and muscle protein expression of C2C12 myoblasts exposed to deacetylase inhibitors (MHC immunofluorescence, Western blot, RT-PCR, FACS); type: cell-based, mouse; settings: for Nuclei/MHC-Positive Cells (number of nuclei) / percentage of nuclei detected in MHC-positive cells: C2C12, DI 24 hours in GM, then DM without DI, Tr. 1 and Tr. 2; for MHC expression and frequency of MHC-positive multinucleated cells: undifferentiated myoblasts exposed in GM, differentiated in the absence of DI, vs untreated cells
Description: Mouse muscle myoblast C2C12 cells (obtained from the American Type Culture Collection, ATCC CRL-1772) and CC42 cells (from Dr. Kenneth Walsh, Tufts University School of Medicine) were cultured in DMEM supplemented with 20% fetal bovine serum, 2 mM glutamine and 1× kanamycin (growth medium, GM). Cellular differentiation was induced with DMEM supplemented with 2% horse serum and 1× insulin, transferring, selenium (Life Technologies). Human skeletal myocytes (CC-2561) were purchased from Clonetics. Stable C2C12 cell lines with integrated reporters are described in Wu, Z., et al., Mol Cell Biol 20:3951-64 (2000). The MCK-luc, 4RE-luc, MEF2 reporter constructs have been described in Puri, P. L., et al., EMBO Journal 16:369-83 (1997a) and Sartorelli, V., et al., Molecular & Cellular Biology 17:1010-26 (1997). The E2F-luc plasmid is described in Helin, K., et al., Genes Dev 7:1850-61 (1993). The MLC-lacZ-nls plasmid is described in Wu, et al. (2000). Dr. Stuart Schreiber (Harvard University) provided the vector expressing Flag-HDAC1, which is described in Taunton, J., et al., Science 272: 408-11 (1996). Transient transfections were performed using FuGENE 6 transfection reagent (Roche Molecular Biochemicals). Following transfections, luciferase activity was determined using the Dual-Luciferase reporter assay system (Promega) on a microtiter luminescence detection system (MLX, Dynex).
For immunoblotting, cell extracts were obtained after incubating the cells in standard lysis buffer. Western blots were probed with the following antibodies: anti-MHC (MF-20), anti-myogenin (FD5), and anti-tubulin (E7), obtained from the Developmental Studies Hybridoma Bank, University of Iowa. Primary antibodies were visualized with the ECL cheminoluminescent kit (Amersham). Cells were fixed and stained with anti-MHC MF-20 antibodies. Nuclei were visualized by 4′,6′-[…]-2-phenylindole (DAPI). FITC-conjugated or Texas red-conjugated secondary antibodies were employed to reveal the primary antibodies.
C2C12 and CC42 cells were exposed to sodium butyrate 5 mM (Sigma), trichostatin A 50 nM (Upstate Biotechnologies), or valproic acid 10 mM (Sigma) for 24 hours in GM (GM regimen). TSA was removed and the cells cultured in DM for 48 hrs before being analyzed. When indicated (DM regimen), the cells were exposed to deacetylase inhibitors when switched from GM to DM and cultured in their presence for 48 hrs.
Another striking effect induced by DI is their ability to increase the number of nuclei present in MHC positive cells. While approximately 15% of the total nuclei are present in elongated, MHC-positive myotubes not exposed to DI, approximately 75-80% of the total nuclei are detected in hypernucleated MHC-positive myotubes when these have been previously exposed to DI (see FIG. 1D and Table 1). In Table 1, C2C12 cells were either exposed to sodium butyrate, TSA, VPA or left untreated for 24 hours in GM. The medium was replaced with DM without DI, and MHC expression was detected by immunofluorescent staining. Nuclei were visualized with DAPI. The values in parenthesis indicate the percentage of nuclei detected in MHC-positive cells. The values are derived from two independent trials.

MLC3F-lacZ-nls construct = assay: β-Galactosidase assay of cells transfected with MLC3F-lacZ-nls; type: cell-based, mouse; settings: transfected cells exposed in GM, then DM 48 hours; vs non-treated cells
Description: FIGS. 4A-C illustrate that embryos exposed to DI display enhanced somitogenesis and increased muscle gene expression. […] Cells were then exposed to TSA (50 nM) in GM and subsequently switched to DM for 48 hours. Cells were stained to detect β-galactosidase activity. FIG. 4B is a picture of E 10.5 embryos derived from MLC1/3F-nLacZ transgenic mice exposed to either TSA or VPA treatment (see Example 1) and stained for 1 hour at 30° C. to detect β-galactosidase activity. […] FIG. 4C is a Western blot of extracts derived from total embryos exposed to either TSA or VPA; MHC is detected.
Cells transfected with MLC-lacZ-nls were washed twice in PBS, fixed in 4% paraformaldeheyde-PBS for 5 min, washed twice in PBS, and stained for 2-5 hrs with 5 mM potassium ferrycyanide, 5 mM potassium ferrocyanide, 2 mM MgCl2, 1 mg/ml X-gal (5-bromo-4-chloro-3-indolyl-β-D-galactoside).

mouse embryos = assay: Embryos of pregnant MLC1/3F-nLacZ mice exposed in utero (somitogenesis, muscle gene expression); type: in vivo
Description: MLC1/3F-nLacZ pregnant mice (E 8.5) received intra peritoneal injection of 15 μg of TSA (WAKO chemicals, Neuss Germany) or VPA (Sigma) at E 8.5 and E 9.5 as described in Faiella, A., et al., Hum Mol Genet 9:227-36 (2000), and Nervi, C., et al., Cancer Res 61:1247-9 (2001). VPA was dissolved in distilled water and administered at doses of 6 mg/mice (about 150 μg/ml) every 12 h at E 8.5, E 9, E 9.5, E 10 as described in Faiella et al. (2000). […] Mice were sacrificed at E 10.5, and the embryos were observed under a dissecting stereo-microscope to evaluate their viability, presence of external malformations, and number of somites. Embryos were fixed in 4% paraformaldehyde for histology and X-Gal staining or immunocytochemistry using antibodies against MyoD and myosin heavy chains as described in Tajbakhsh, S., et al., Neuron 13:813-21 (1994).
DI was administered intraperitoneally to pregnant mice (at a concentration of 0.5 to 1 mg/Kg for TSA and 200 mg/Kg for VPA) at post-implantation stages of E 8.5, and the pregnant mice were sacrificed at 10.5, when MyoD expression is clearly detectable in the myotomes. […] In Table 2, Somites of MLC1/3F-nLacZ mice (injected at day 8.5 and sacrificed at day 10.5) were scored after staining the embryos to detect β-galactosidase activity.

[1] = i.p. to pregnant mice at E 8.5, sacrificed at 10.5, 0.5 to 1 mg/Kg TSA, 200 mg/Kg VPA

Row | Structure (SMILES) | Nuclei/MHC-Positive Cells (number of nuclei) (C2C12 cells) | percentage of nuclei detected in MHC-positive cells (C2C12 cells) | expression of myogenin and MHC, differentiation (C2C12 cells; C2C12 treated when cultured in DM, 48 hours) | apoptosis (reduced cell density) (C2C12 cells; cells exposed in DM) | MHC expression and frequency of MHC-positive multinucleated cells (C2C12 cells) | β-galactosidase-positive nuclei (MLC3F-lacZ-nls construct) | level of MLC-lacZ transgene expression (mouse embryos; E 10.5 embryos, vs control embryos) | # somites (β-galactosidase staining) (mouse embryos; MLC1/3F-nLacZ mice injected at day 8.5, sacrificed at day 10.5, TSA [1 mg/ml] (20 ul + 380 ul PBS), VPA 155 mM, one value per embryo, PBS controls 25-32) | levels of MHC in exposed embryos (Western blot) (mouse embryos; extracts of total embryos) | number of MLC expressing somites (mouse embryos; [1]) | number of MyoD expressing myotomes (mouse embryos; [1])
1 | CCCC(=O)[O-].[Na+] [Sodium Butyrate, sodium butyrate] | 230 and 210 | 83% and 84% | failed to activate expression of both myogenin and the myosin heavy chain (MHC) and to properly differentiate | high frequency of apoptosis | upregulated MHC expression and displayed a striking increased frequency of larger MHC-positive multinucleated cells |  |  |  |  |  | 
2 | CCCC(CCC)C(=O)O [VPA, valproic acid] | 153 and 187 | 81% and 78% |  |  | effects undistinguishable from those exerted by sodium butyrate | increased β-galactosidase-positive nuclei | higher level of MLC-lacZ transgene expression | 35 and 36 and 33 and 34 | augmented the levels of MHC | consistently increased | consistently increased
